Laboratory results: BindingDB's records for doi:10.1021/jm020429w (Rensselaer Polytechnic Institute, 2003)

Experiment: Binding affinity towards Opioid receptor delta 1 from guinea pig brain using [3H]naltrindole as radioligand

| SMILES | Ki [nM] |
| --- | --- |
| C[C@H]1C2Cc3ccc(Nc4ccc(Cl)cc4)cc3[C@@]1(C)CCN2CC1CC1 [(4-Chloro-phenyl)-(3-cyclopropylmethyl-6,11-dimethyl-1,2,3,4,5,6-hexahydro-2,6-methano-benzo[d]azocin-8-yl)-amine] | 26 |
| C[C@H]1C2Cc3ccc(N=C(c4ccccc4)c4ccccc4)cc3[C@@]1(C)CCN2CC1CC1 [Benzhydrylidene-(3-cyclopropylmethyl-6,11-dimethyl-1,2,3,4,5,6-hexahydro-2,6-methano-benzo[d]azocin-8-yl)-amine] | 220 |
| C[C@H]1[C@H]2Cc3ccc(O)cc3[C@@]1(C)CCN2C[C@@H]1CCCO1 | 2.5 |
| C[C@H]1C2Cc3ccc(Nc4ccc(N(C)C)cc4)cc3[C@@]1(C)CCN2CC1CC1 [N-(3-Cyclopropylmethyl-6,11-dimethyl-1,2,3,4,5,6-hexahydro-2,6-methano-benzo[d]azocin-8-yl)-N',N'-dimethyl-benzene-1,4-diamine] | 75 |
| C[C@H]1C2Cc3ccc(NCc4ccc(Cl)cc4)cc3[C@@]1(C)CCN2CC1CC1 [(4-Chloro-benzyl)-(3-cyclopropylmethyl-6,11-dimethyl-1,2,3,4,5,6-hexahydro-2,6-methano-benzo[d]azocin-8-yl)-amine] | 100 |
| C[C@H]1C2Cc3cc4c(cc3[C@@]1(C)CCN2CC1CC1)[nH]c1ccccc14 [17-cyclopropylmethyl-1,20-dimethyl-(1S,20R)-5,17-diazapentacyclo[14.3.1.02,14.04,12.06,11]icosa-2(14),3,6(11),7,9,12-hexaene] | 170 |
| C[C@H]1C2Cc3ccc(Nc4ccc(C(C)(C)C)cc4)cc3[C@@]1(C)CCN2CC1CC1 [(4-tert-Butyl-phenyl)-(3-cyclopropylmethyl-6,11-dimethyl-1,2,3,4,5,6-hexahydro-2,6-methano-benzo[d]azocin-8-yl)-amine] | 61 |
| C[C@H]1C2Cc3ccc(Nc4cccnc4)cc3[C@@]1(C)CCN2CC1CC1 [(3-Cyclopropylmethyl-6,11-dimethyl-1,2,3,4,5,6-hexahydro-2,6-methano-benzo[d]azocin-8-yl)-pyridin-3-yl-amine] | 21 |
| CC[C@@]12CCN(CC3CC3)C(C(=O)c3ccc(N)cc31)[C@@H]2C [8-Amino-3-cyclopropylmethyl-6-ethyl-11-methyl-3,4,5,6-tetrahydro-2H-2,6-methano-benzo[d]azocin-1-one] | 81 |
| Cc1ccc(Nc2ccc3c(c2)[C@@]2(C)CCN(CC4CC4)C(C3)[C@@H]2C)cc1 [(3-Cyclopropylmethyl-6,11-dimethyl-1,2,3,4,5,6-hexahydro-2,6-methano-benzo[d]azocin-8-yl)-p-tolyl-amine] | 6.2 |
| C[C@H]1C2Cc3ccc(Nc4ccc(Cl)c(Cl)c4)cc3[C@@]1(C)CCN2CC1CC1 [(3-Cyclopropylmethyl-6,11-dimethyl-1,2,3,4,5,6-hexahydro-2,6-methano-benzo[d]azocin-8-yl)-(3,4-dichloro-phenyl)-amine] | 29 |
| COc1ccccc1Nc1ccc2c(c1)[C@@]1(C)CCN(CC3CC3)C(C2)[C@@H]1C [(3-Cyclopropylmethyl-6,11-dimethyl-1,2,3,4,5,6-hexahydro-2,6-methano-benzo[d]azocin-8-yl)-(2-methoxy-phenyl)-amine] | 98 |
| C[C@@H]1[C@@H]2Cc3ccc(N)cc3[C@]1(C)CCN2CC1CC1 [3-Cyclopropylmethyl-6,11-dimethyl-1,2,3,4,5,6-hexahydro-2,6-methano-benzo[d]azocin-8-ylamine] | 920 |
| C[C@H]1C2Cc3ccc(Nc4ccc(C(F)(F)F)cc4)cc3[C@@]1(C)CCN2CC1CC1 [(3-Cyclopropylmethyl-6,11-dimethyl-1,2,3,4,5,6-hexahydro-2,6-methano-benzo[d]azocin-8-yl)-(4-trifluoromethyl-phenyl)-amine] | 180 |
| C[C@H]1C2Cc3ccc(N(C)C)cc3[C@@]1(C)CCN2CC1CC1 [((6S,11R)-3-Cyclopropylmethyl-6,11-dimethyl-1,2,3,4,5,6-hexahydro-2,6-methano-benzo[d]azocin-8-yl)-dimethyl-amine] | 810 |
| C[C@H]1C2Cc3ccc(Nc4ccccn4)cc3[C@@]1(C)CCN2CC1CC1 [(3-Cyclopropylmethyl-6,11-dimethyl-1,2,3,4,5,6-hexahydro-2,6-methano-benzo[d]azocin-8-yl)-pyridin-2-yl-amine] | 11 |
| C[C@H]1C2C(=O)c3ccc(N)cc3[C@@]1(C)CCN2CC1CC1 [8-Amino-3-cyclopropylmethyl-6,11-dimethyl-3,4,5,6-tetrahydro-2H-2,6-methano-benzo[d]azocin-1-one] | 29 |
| C[C@H]1[C@H]2Cc3ccc(Nc4ccccc4)cc3[C@@]1(C)CCN2C[C@@H]1CCCO1 [[6,11-Dimethyl-3-(tetrahydro-furan-2-ylmethyl)-1,2,3,4,5,6-hexahydro-2,6-methano-benzo[d]azocin-8-yl]-phenyl-amine] | 35 |
| C[C@H]1C2C(=O)c3ccc(O)cc3[C@@]1(C)CCN2CC1CC1 [3-Cyclopropylmethyl-8-hydroxy-6,11-dimethyl-3,4,5,6-tetrahydro-2H-2,6-methano-benzo[d]azocin-1-one] | 20 |
| COc1cccc(Nc2ccc3c(c2)[C@@]2(C)CCN(CC4CC4)C(C3)[C@@H]2C)c1 [(3-Cyclopropylmethyl-6,11-dimethyl-1,2,3,4,5,6-hexahydro-2,6-methano-benzo[d]azocin-8-yl)-(3-methoxy-phenyl)-amine] | 13 |
| C[C@H]1C2Cc3ccc(Nc4ccncc4)cc3[C@@]1(C)CCN2CC1CC1 [(3-Cyclopropylmethyl-6,11-dimethyl-1,2,3,4,5,6-hexahydro-2,6-methano-benzo[d]azocin-8-yl)-pyridin-4-yl-amine] | 240 |
| COc1ccc(CNc2ccc3c(c2)[C@@]2(C)CCN(CC4CC4)C(C3)[C@@H]2C)cc1 [(3-Cyclopropylmethyl-6,11-dimethyl-1,2,3,4,5,6-hexahydro-2,6-methano-benzo[d]azocin-8-yl)-(4-methoxy-benzyl)-amine] | 80 |
| COc1ccc(Nc2ccc3c(c2)[C@@]2(C)CCN(CC4CC4)C(C3)[C@@H]2C)cc1 [(3-Cyclopropylmethyl-6,11-dimethyl-1,2,3,4,5,6-hexahydro-2,6-methano-benzo[d]azocin-8-yl)-(4-methoxy-phenyl)-amine] | 8.3 |
| C[C@H]1[C@H]2Cc3ccc(N)cc3[C@@]1(C)CCN2C[C@@H]1CCCO1 [6,11-Dimethyl-3-(tetrahydro-furan-2-ylmethyl)-1,2,3,4,5,6-hexahydro-2,6-methano-benzo[d]azocin-8-ylamine] | 370 |
| CC[C@@]12CCN(CC3CC3)C(C(=O)c3ccc(Nc4ccccc4)cc31)[C@@H]2C [3-Cyclopropylmethyl-6-ethyl-11-methyl-8-phenylamino-3,4,5,6-tetrahydro-2H-2,6-methano-benzo[d]azocin-1-one] | 37 |
